Experiments:
[1] = target: Cyclin-dependent kinase 5/CDK5 activator 1 (Homo sapiens, UniProt Q00535); assay: Inhibition of GST-fused CDK5/p25 expressed in Escherichia coli assessed as [gamma-33P]ATP incorporation after 10 mins by scintillation counting
[2] = target: Dual specificity tyrosine-phosphorylation-regulated kinase 1A (Rattus norvegicus, UniProt Q63470); assay: Inhibition of GST-fused rat recombinant DYRK1A expressed in Escherichia coli assessed as [gamma-33P]ATP incorporation after 10 mins by scintillation counting
[3] = target: Glycogen synthase kinase-3 (Sus scrofa, UniProt B2LUN4+I6LNT8); assay: Inhibition of porcine brain GSK3alpha/beta assessed as [gamma-33P]ATP incorporation after 30 mins by scintillation counting
[4] = Inhibition of porcine brain CK1 assessed as [gamma-33P]ATP incorporation after 10 mins by scintillation counting; set-up: species or system Sus scrofa
[5] = Inhibition of Marthasterias glacialis CDK1/cyclin-B assessed as [gamma-33P]ATP incorporation after 10 mins by scintillation counting
[6] = Antiproliferative activity against human fibroblast after 72 hrs by imaging analysis; format: cell-based
HCT-116 = assay: Antiproliferative activity against human HCT116 cells after 72 hrs by imaging analysis; format: functional, cell-based; details: HCT-116, 72 h
[7] = Antiproliferative activity against human NCI/ADR cells after 72 hrs by imaging analysis; format: functional, cell-based; details: NCI/ADR-RES
PC-3 = assay: Antiproliferative activity against human PC3 cells after 72 hrs by imaging analysis; format: functional, cell-based; details: PC-3, 72 h
Huh-7 = assay: Antiproliferative activity against human HuH7 cells after 72 hrs by imaging analysis; format: functional, cell-based; details: Huh-7, 72 h
Caco-2 = assay: Antiproliferative activity against human Caco-2 cells after 72 hrs by imaging analysis; format: functional, cell-based; details: Caco-2, 72 h

Sequence of Cyclin-dependent kinase 5/CDK5 activator 1 (Q00535 whole entry, the tested form may be a part): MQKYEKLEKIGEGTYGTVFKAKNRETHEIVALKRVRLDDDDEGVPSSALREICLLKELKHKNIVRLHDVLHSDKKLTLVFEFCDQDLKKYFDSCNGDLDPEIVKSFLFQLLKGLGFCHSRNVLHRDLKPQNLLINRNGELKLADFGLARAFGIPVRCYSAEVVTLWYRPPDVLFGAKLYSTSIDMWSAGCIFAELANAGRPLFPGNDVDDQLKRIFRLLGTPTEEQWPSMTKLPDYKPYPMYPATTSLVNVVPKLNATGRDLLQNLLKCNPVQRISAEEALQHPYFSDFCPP
Sequence of Cyclin-dependent kinase 5/CDK5 activator 1 (Q15078 whole entry, further chain, the tested form may be a part): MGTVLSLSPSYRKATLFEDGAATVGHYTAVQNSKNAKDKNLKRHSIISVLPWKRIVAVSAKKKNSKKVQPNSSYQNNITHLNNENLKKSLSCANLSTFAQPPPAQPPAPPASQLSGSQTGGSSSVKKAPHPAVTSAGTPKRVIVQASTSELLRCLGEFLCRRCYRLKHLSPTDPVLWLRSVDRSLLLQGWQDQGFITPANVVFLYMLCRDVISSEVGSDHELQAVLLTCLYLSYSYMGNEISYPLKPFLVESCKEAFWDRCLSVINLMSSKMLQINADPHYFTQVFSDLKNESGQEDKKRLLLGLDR

Structure (SMILES)	IC50 [1] [µM]	IC50 [2] [µM]	IC50 [3] [µM]	IC50 [4] [µM]	IC50 [5] [µM]	IC50 [6] [µM]	IC50 (HCT-116) [µM]	IC50 [7] [µM]	IC50 (PC-3) [µM]	IC50 (Huh-7) [µM]	IC50 (Caco-2) [µM]
O=C1Nc2ccc([N+](=O)[O-])cc2/C1=C1/Nc2ccc(Br)cc2/C1=N/O	0.05	> 10	0.055	> 10	0.16	–	–	–	–	–	–
O=C1C(c2c(O)[nH]c3ccc([N+](=O)[O-])cc23)=Nc2ccccc21	25	> 10	19	> 10	40	–	–	–	–	–	–
O=Nc1c(-c2c(O)[nH]c3ccc([N+](=O)[O-])cc23)[nH]c2ccccc12	0.006	1.3	0.0021	> 10	0.019	–	–	–	–	–	–
CC(=O)Nc1ccc2c(c1)/C(=C1/Nc3ccccc3/C1=N\O)C(=O)N2	0.16	15	0.35	0.4	0.088	–	–	–	–	–	–
CC(=O)Nc1ccc2c(c1)/C(=C1/Nc3ccccc3C1=O)C(=O)N2	0.018	2.5	0.0075	8	0.05	> 25	2	10	2	2	5
O=C1Nc2cc([N+](=O)[O-])ccc2/C1=C1/Nc2ccccc2C1=O	> 10	–	60	> 10	> 10	> 25	5	2	15	> 25	3
Nc1ccc2c(c1)NC(=O)/C2=C1\Nc2ccccc2\C1=N/O	0.2	–	0.18	0.5	1	–	–	–	–	–	–
Nc1ccc2c(c1)/C(=C1/Nc3ccccc3C1=O)C(=O)N2	0.59	2.5	0.08	0.65	1.5	> 25	15	20	5	6	2
O=C1Nc2cc([N+](=O)[O-])ccc2/C1=C1/Nc2ccccc2/C1=N\O	0.12	–	0.04	0.6	0.18	–	–	–	–	–	–
CC(=O)Nc1ccc2c(c1)/C(=C1/Nc3ccc(Br)cc3/C1=N\O)C(=O)N2	3.3	> 10	40	> 10	1.4	–	–	–	–	–	–
O=C1Nc2c(Br)cc([N+](=O)[O-])cc2/C1=C1/Nc2ccccc2/C1=N\O	> 10	> 10	> 10	> 10	> 10	–	–	–	–	–	–
O=C1Nc2ccccc2/C1=C1\C(=O)Nc2ccc([N+](=O)[O-])cc21	–	–	–	–	–	> 25	> 25	25	> 25	> 25	> 25
O=C1Nc2ccc([N+](=O)[O-])cc2/C1=C1/Nc2ccc(Br)cc2C1=O	> 10	> 10	> 10	> 10	> 10	–	–	–	–	–	–
Nc1ccc2c(c1)/C(=C1/Nc3ccccc3/C1=N\O)C(=O)N2	0.15	4.2	0.36	0.13	0.1	–	–	–	–	–	–
CC(=O)Nc1ccc2c(c1)/C(=C1/Nc3ccc(Br)cc3C1=O)C(=O)N2	0.11	7.3	0.073	> 10	0.055	–	–	–	–	–	–
O=C1Nc2c(Br)cc([N+](=O)[O-])cc2/C1=C1/Nc2ccc(Br)cc2/C1=N\O	> 10	> 10	> 10	> 10	> 10	–	–	–	–	–	–
O=C1Nc2c(Br)cc([N+](=O)[O-])cc2/C1=C1/Nc2ccccc2C1=O	> 10	> 10	> 10	> 10	> 10	–	–	–	–	–	–
O=C1Nc2c(Br)cc([N+](=O)[O-])cc2/C1=C1/Nc2ccc(Br)cc2C1=O	> 10	> 10	> 10	> 10	> 10	–	–	–	–	–	–
O=C1Nc2cc([N+](=O)[O-])ccc2/C1=C1/Nc2ccc(Br)cc2C1=O	> 10	–	> 10	> 10	> 10	–	–	–	–	–	–
Nc1ccc2c(c1)/C(=C1/Nc3ccc(Br)cc3/C1=N\O)C(=O)N2	1	> 10	6.6	> 10	0.41	–	–	–	–	–	–
O=C1Nc2cc([N+](=O)[O-])ccc2/C1=C1/Nc2ccc(Br)cc2/C1=N\O	0.3	–	0.7	18	7	–	–	–	–	–	–
Nc1ccc2c(c1)NC(=O)/C2=C1\Nc2ccccc2C1=O	4	–	0.36	16	30	> 25	> 25	25	25	> 25	5
Nc1ccc2c(c1)/C(=C1/Nc3ccc(Br)cc3C1=O)C(=O)N2	0.55	> 10	0.44	2.7	0.6	–	–	–	–	–	–
Nc1ccc2c(c1)/C(=C1\C(=O)Nc3ccccc31)C(=O)N2 [(3'Z)-5-AMINOISOINDIGO]	–	–	–	–	–	> 25	> 25	25	25	> 25	> 25
CC(=O)O[C@H]1C(=O)[C@@]2(C)[C@H]([C@H](OC(=O)c3ccccc3)[C@]3(O)C[C@H](OC(=O)[C@H](O)[C@@H](NC(=O)c4ccccc4)c4ccccc4)C(C)=C1C3(C)C)[C@]1(OC(C)=O)CO[C@@H]1C[C@@H]2O [PACLITAXEL]	–	–	–	–	–	0.03	< 0.0008	0.004	< 0.0008	0.008	0.02
CC[C@H](CO)Nc1nc(NCc2ccccc2)c2ncn(C(C)C)c2n1 [SELICICLIB]	–	–	–	–	–	> 25	5	6	8	5	–

Reference: ChEMBL document CHEMBL1152528, “Synthesis and kinase inhibitory activity of novel substituted indigoids” (Bioorg Med Chem, 2009)
